Measured values from PubChem BioAssay (NCI).
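Results reflect a 48-hour exposure of cells in 96-well plates to compound at five concentrations. The concentration for full growth arrest is given as TGI.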

Key:
Assay in all cases: growth of human tumour cells (NCI), 48 h
[1] = tested on: UO-31 renal
[2] = tested on: COLO 205 colon
[3] = tested on: ACHN renal
[4] = tested on: SW-620 colon
[5] = tested on: NCI-H23 lung
[6] = tested on: OVCAR-8 ovarian
[7] = tested on: NCI/ADR-RES ovarian
[8] = tested on: SK-MEL-28 melanoma
[9] = tested on: U251 CNS
[10] = tested on: LOX IMVI melanoma
[11] = tested on: HCT-116 colon
[12] = tested on: NCI-H460 lung
[13] = tested on: MDA-MB-231 breast
[14] = tested on: UACC-62 melanoma
[15] = tested on: HOP-92 NSCLC
[16] = tested on: A549 NSCLC
[17] = tested on: OVCAR-4 ovarian
[18] = tested on: SF-268 CNS
[19] = tested on: MCF7 breast
[20] = tested on: IGROV1 ovarian
[21] = tested on: T-47D breast
[22] = tested on: HL-60(TB) leukemia
[23] = tested on: CAKI-1 renal
[24] = tested on: SK-OV-3 ovarian
[25] = tested on: OVCAR-3 ovarian
[26] = tested on: 786-0 renal
[27] = tested on: NCI-H226 lung
[28] = tested on: SF-295 CNS
[29] = tested on: PC-3 prostate
[30] = tested on: SNB-19 CNS
[31] = tested on: HCC-2998 colon
[32] = tested on: MDA-N
[33] = tested on: K-562 leukemia
[34] = tested on: MDA-MB-435
[35] = tested on: SR leukemia
[36] = tested on: KM12 colon
[37] = tested on: HCT-15 colon
[38] = tested on: M14 melanoma
[39] = tested on: HS 578T breast
[40] = tested on: A498 renal
[41] = tested on: TK-10 renal
[42] = tested on: EKVX NSCLC
[43] = tested on: HOP-62 NSCLC
[44] = tested on: SF-539 CNS
[45] = tested on: OVCAR-5 ovarian
[46] = tested on: UACC-257 melanoma
[47] = tested on: SK-MEL-2 melanoma
[48] = tested on: MALME-3M melanoma
[49] = tested on: HT29 colon
[50] = tested on: DU-145 prostate
[51] = tested on: BT-549 breast
[52] = tested on: NCI-H522 lung
[53] = tested on: CCRF-CEM leukemia
[54] = tested on: SN12C renal
[55] = tested on: SNB-75 CNS
[56] = tested on: SK-MEL-5 melanoma
[57] = tested on: RPMI-8226 leukemia
[58] = tested on: MOLT-4 leukemia
[59] = tested on: RXF 393 renal

## COc1cc2ccc(C(=O)NCCCNC(=O)c3ccc4cc(OC)c(OC)cc4c3)cc2cc1OC
[1]
  TGI: > 100 µM
[2]
  TGI: > 100 µM
[3]
  TGI: > 100 µM
[4]
  TGI: > 100 µM
[5]
  TGI: > 100 µM
[6]
  TGI: > 100 µM
[7]
  TGI: > 100 µM
[8]
  TGI: > 100 µM
[9]
  TGI: > 100 µM
[10]
  TGI: > 100 µM
[11]
  TGI: > 100 µM
[12]
  TGI: > 100 µM
[13]
  TGI: > 100 µM
[14]
  TGI: > 100 µM
[15]
  TGI: > 100 µM
[16]
  TGI: > 100 µM
[17]
  TGI: > 100 µM
[18]
  TGI: > 100 µM
[19]
  TGI: > 100 µM
[20]
  TGI: > 100 µM
[21]
  TGI: > 100 µM
[22]
  TGI: > 100 µM
[23]
  TGI: > 100 µM
[24]
  TGI: > 100 µM
[25]
  TGI: > 100 µM
[26]
  TGI: > 100 µM
[27]
  TGI: > 100 µM
[28]
  TGI: > 100 µM
[29]
  TGI: > 100 µM
[30]
  TGI: > 100 µM
[31]
  TGI: > 100 µM
[32]
  TGI: > 100 µM
[33]
  TGI: > 100 µM
[34]
  TGI: > 100 µM
[35]
  TGI: > 100 µM
[36]
  TGI: > 100 µM
[37]
  TGI: > 100 µM
[38]
  TGI: > 100 µM
[39]
  TGI: > 100 µM
[40]
  TGI: > 100 µM
[41]
  TGI: > 100 µM
[42]
  TGI: > 100 µM
[43]
  TGI: > 100 µM
[44]
  TGI: > 100 µM
[45]
  TGI: > 100 µM
[46]
  TGI: > 100 µM
[47]
  TGI: > 100 µM
[48]
  TGI: > 100 µM
[49]
  TGI: > 100 µM
[50]
  TGI: > 100 µM
[51]
  TGI: > 100 µM
[52]
  TGI: > 100 µM
[53]
  TGI: > 100 µM
[54]
  TGI: > 100 µM
[55]
  TGI: 95.8 µM
[56]
  TGI: > 100 µM

## CCCC[C@@H](C)/C=C1\CN2CCC[C@H]2[C@@](C)(OCc2ccccc2)[C@@H]1O
[1]
  TGI: > 16.6 µM
[57]
  TGI: > 23.7 µM
[2]
  TGI: > 50 µM
[3]
  TGI: > 50 µM
[4]
  TGI: > 50 µM
[5]
  TGI: > 50 µM
[6]
  TGI: > 50 µM
[7]
  TGI: > 50 µM
[8]
  TGI: > 50 µM
[9]
  TGI: > 50 µM
[10]
  TGI: > 50 µM
[11]
  TGI: > 50 µM
[12]
  TGI: > 50 µM
[13]
  TGI: > 50 µM
[14]
  TGI: > 50 µM
[15]
  TGI: > 50 µM
[16]
  TGI: > 50 µM
[17]
  TGI: > 50 µM
[18]
  TGI: > 50 µM
[19]
  TGI: > 50 µM
[58]
  TGI: > 50 µM
[20]
  TGI: > 50 µM
[21]
  TGI: > 19.3 µM
[23]
  TGI: > 50 µM
[24]
  TGI: > 50 µM
[25]
  TGI: > 28.7 µM
[26]
  TGI: > 50 µM
[27]
  TGI: > 50 µM
[28]
  TGI: > 50 µM
[29]
  TGI: > 50 µM
[30]
  TGI: > 50 µM
[31]
  TGI: > 50 µM
[32]
  TGI: > 50 µM
[33]
  TGI: > 50 µM
[34]
  TGI: > 50 µM
[59]
  TGI: > 50 µM
[35]
  TGI: > 50 µM
[36]
  TGI: > 18.9 µM
[37]
  TGI: > 50 µM
[38]
  TGI: > 50 µM
[39]
  TGI: > 50 µM
[40]
  TGI: > 50 µM
[41]
  TGI: > 50 µM
[42]
  TGI: > 50 µM
[43]
  TGI: 18.4 µM
[44]
  TGI: 49.7 µM
[45]
  TGI: > 50 µM
[46]
  TGI: > 46.1 µM
[47]
  TGI: > 50 µM
[48]
  TGI: > 50 µM
[49]
  TGI: > 50 µM
[50]
  TGI: > 19.3 µM
[51]
  TGI: > 50 µM
[52]
  TGI: > 50 µM
[53]
  TGI: > 50 µM
[54]
  TGI: > 50 µM
[55]
  TGI: > 50 µM
[56]
  TGI: > 50 µM

## O=C(Nc1sccc1S(=O)(=O)c1ccc(Cl)cc1)c1ccc(F)cc1F
[1]
  TGI: 47.7 µM
[57]
  TGI: > 100 µM
[2]
  TGI: > 100 µM
[3]
  TGI: > 100 µM
[4]
  TGI: > 100 µM
[5]
  TGI: 54.9 µM
[6]
  TGI: > 100 µM
[7]
  TGI: > 100 µM
[8]
  TGI: > 100 µM
[9]
  TGI: 45 µM
[10]
  TGI: > 100 µM
[11]
  TGI: > 100 µM
[13]
  TGI: 54 µM
[14]
  TGI: 86.8 µM
[15]
  TGI: 42.5 µM
[16]
  TGI: > 100 µM
[17]
  TGI: 53.9 µM
[18]
  TGI: 42.7 µM
[19]
  TGI: > 100 µM
[58]
  TGI: 56.7 µM
[20]
  TGI: > 100 µM
[21]
  TGI: > 100 µM
[22]
  TGI: > 100 µM
[23]
  TGI: 65.9 µM
[24]
  TGI: 53.4 µM
[25]
  TGI: > 100 µM
[26]
  TGI: 36.5 µM
[27]
  TGI: > 100 µM
[28]
  TGI: 65.3 µM
[29]
  TGI: > 100 µM
[30]
  TGI: 48.8 µM
[31]
  TGI: > 100 µM
[32]
  TGI: > 100 µM
[33]
  TGI: 38.6 µM
[34]
  TGI: > 100 µM
[59]
  TGI: 46.2 µM
[35]
  TGI: 40.9 µM
[36]
  TGI: > 100 µM
[37]
  TGI: > 100 µM
[38]
  TGI: > 100 µM
[39]
  TGI: 80.5 µM
[40]
  TGI: 51.5 µM
[41]
  TGI: 42.7 µM
[42]
  TGI: 43.5 µM
[43]
  TGI: 80.1 µM
[44]
  TGI: 30.5 µM
[45]
  TGI: 81.3 µM
[46]
  TGI: > 100 µM
[47]
  TGI: 39.5 µM
[48]
  TGI: 96.4 µM
[49]
  TGI: > 100 µM
[50]
  TGI: > 100 µM
[51]
  TGI: 46.8 µM
[52]
  TGI: 51.9 µM
[53]
  TGI: 37.8 µM
[54]
  TGI: > 100 µM
[55]
  TGI: 38.8 µM
[56]
  TGI: > 100 µM
